Source: patent US20090318494A1, “PYRAZOLO[3,4-B]PYRIDINE COMPOUNDS, AND THEIR USE AS PDE4 INHIBITORS” (Glaxo Group Limited, priority 2006, published 2009)
Structures can show the parent of a compound that is named as a salt.

Tests used:
[1] = system: atopic dermatitis patients; conditions: cited from earlier work
[2] = molecular target: T1, PDE4B (human recombinant) (Homo sapiens, UniProt Q07343); assay: Inhibition of PDE4B activity: IMAP Fluorescence Polarisation (FP) assay; format: biochemical; conditions: FP assay or generally similar assay; each limit ±about 0.5; n=1 or average of 2 or more readings; read-out: PDE4B inhibitory activities, pIC50 (converted)
T1 construct: made in house; host or cells: Saccharomyces cerevisiae strain GL62 (named as a possible source, as described in WO 94/20079)
Source text: The ability of compounds to inhibit catalytic activity at PDE4B (human recombinant) or PDE4D (human recombinant) can optionally be determined by IMAP Fluorescence Polarisation (FP) assay (IMAP Explorer kit, available from Molecular Devices Corporation, Sunnydale, Calif., USA; Molecular Devices code: R8062) in 384-well format.
The IMAP FP assay is able to measure PDE activity in an homogenous, non-radioactive assay format. The FP assay uses the ability of immobilised trivalent metal cations, coated onto nanoparticles (tiny beads), to bind the phosphate group of Fl-AMP that is produced on the hydrolysis of fluorescein-labelled (Fl) cyclic adenosine mono-phosphate (Fl-cAMP) to the non-cyclic Fl-AMP form. […] Binding of Fl-AMP product to the beads (coated with the immobilised trivalent cations) slows the rotation of the bound Fl-AMP and leads to an increase in the fluorescence polarisation ratio of parallel to perpendicular light. Inhibition of the PDE reduces/inhibits this signal increase.
Test compounds (small volume, e.g. ca. 0.5 to 1 microlitres (ul), suitably ca. 0.5 ul, of solution in DMSO) are preincubated at ambient temperature (room temperature, e.g. 19-23° C.) in black 384-well microtitre plates (supplier: NUNC, code 262260) with PDE enzyme in 10 mM Tris-HCl buffer pH 7.2, 10 mM MgCl2, 0.1% (w/v) bovine serum albumin, and 0.05% NaN3 for 10-30 minutes. The enzyme level is set by experimentation so that reaction is linear throughout the incubation. Fluorescein adenosine 3′,5′-cyclic phosphate (from Molecular Devices Corporation, Molecular Devices code: R7091) is added to give about 40 nM final concentration (final assay volume usually ca. 20-40 ul, suitably ca. 20 ul). Plates are mixed on an orbital shaker for 10 seconds and incubated at ambient temperature for 40 minutes. IMAP binding reagent (as described above, from Molecular Devices Corporation, Molecular Devices code: R7207) is added (60 ul of a 1 in 400 dilution in binding buffer of the kit stock solution) to terminate the assay. Plates are allowed to stand at ambient temperature for 1 hour. The Fluorescence Polarisation (FP) ratio of parallel to perpendicular light is measured using an Analyst™ plate reader (from Molecular Devices Corporation). For inhibition curves, 10 concentrations (e.g. 1.5 nM-30 uM) of each compound are assayed. Curves are analysed using ActivityBase and XLfit (ID Business Solutions Limited, 2 Ocean Court, Surrey Research Park, Guildford, Surrey GU2 7QB, United Kingdom). Results are expressed as pIC50 values.
In the FP assay, reagents can be dispensed using Multidrop™ (available from Thermo Labsystems Oy, Ratastie 2, PO Box 100, Vantaa 01620, Finland).

[3] = system: COPD patients; conditions: cited from earlier work

T1 sequence (Q07343 1-564 isoform Q07343-2): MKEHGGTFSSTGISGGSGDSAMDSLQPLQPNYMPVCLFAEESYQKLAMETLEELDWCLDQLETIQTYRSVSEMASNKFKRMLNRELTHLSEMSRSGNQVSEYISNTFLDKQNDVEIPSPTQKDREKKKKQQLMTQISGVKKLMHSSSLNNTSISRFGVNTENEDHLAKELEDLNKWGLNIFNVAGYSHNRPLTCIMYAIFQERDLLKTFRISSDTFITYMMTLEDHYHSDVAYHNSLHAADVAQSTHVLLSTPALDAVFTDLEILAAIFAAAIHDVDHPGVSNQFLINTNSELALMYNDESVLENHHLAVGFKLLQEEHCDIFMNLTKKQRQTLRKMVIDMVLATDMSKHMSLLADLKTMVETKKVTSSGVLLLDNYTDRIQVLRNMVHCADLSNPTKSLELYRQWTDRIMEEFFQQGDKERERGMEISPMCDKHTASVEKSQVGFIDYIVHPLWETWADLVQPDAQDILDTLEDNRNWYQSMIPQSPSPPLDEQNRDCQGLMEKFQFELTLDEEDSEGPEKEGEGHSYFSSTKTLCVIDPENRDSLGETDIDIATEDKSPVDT

For `COc1ccc(C2CNC(=O)NC2)cc1O[C@H]1C[C@@H]2CC[C@H]1C2` [CP80,633], the “inflammatory parameters in atopic dermatitis patients” value ([1]; 0.5% ointment, twice daily topical application) is listed as “reductions of inflammatory parameters”.

`CCc1nc2c(cnn2CC)c(NC2CCN(C(N)=O)CC2)c1CNC(=O)CCCCCCCN1CCC[C@@H]1COC` [Example 7, 4-[(1,6-diethyl-5-{[(8-{(2R)-2-[(methyloxy)methyl]-1-pyrrolidinyl}octanoyl)amino]methyl}-1H-pyrazolo[3,4-b]pyridin-4-yl)amino]-1-piperidinecarboxamide trifluoroacetate] showed an IC50 [2] of 0.2 to 1.58 nM.

`CCc1nc2c(cnn2CC)c(NC2CCN(C(N)=O)CC2)c1CNC(=O)CCCCCCCN1CCC[C@H]1COC` [Example 8, 4-[(1,6-diethyl-5-{[(8-{(2S)-2-[(methyloxy)methyl]-1-pyrrolidinyl}octanoyl)amino]methyl}-1H-pyrazolo[3,4-b]pyridin-4-yl)amino]-1-piperidinecarboxamide trifluoroacetate] showed an IC50 [2] of 0.2 to 1.58 nM.

`CCc1nc2c(cnn2CC)c(NC2CCOCC2)c1CNC(=O)CCCCCCCN1CCC[C@@H]1COC` [Example 15, N-{[1,6-diethyl-4-(tetrahydro-2H-pyran-4-ylamino)-1H-pyrazolo[3,4-b]pyridin-5-yl]methyl}-8-{(2R)-2-[(methyloxy)methyl]-1-pyrrolidinyl}octanamide trifluoroacetate] gave an IC50 [2] of 0.2 to 1.58 nM.

`CCc1nc2c(cnn2CC)c(NC2CCOCC2)c1CNC(=O)CCCCCCCN1CCC[C@H]1COC` [Example 16, N-{[1,6-diethyl-4-(tetrahydro-2H-pyran-4-ylamino)-1H-pyrazolo[3,4-b]pyridin-5-yl]methyl}-8-{(2S)-2-[(methyloxy)methyl]-1-pyrrolidinyl}octanamide trifluoroacetate] showed an IC50 [2] of 0.2 to 1.58 nM.

For `COc1ccc([C@]2(C#N)CC[C@@H](C(=O)O)CC2)cc1OC1CCCC1` [cilomilast], the “forced expiratory volume in 1s (FEV1)” value ([3]; 15 mg orally twice daily) is listed as “appears to improve forced expiratory volume in 1s (FEV1)” and the “antiinflammatory effects in COPD patients” value [3] is listed as “appears to have antiinflammatory effects”.

In the case of `Nc1nc2c([nH]1)c(=O)n(CC1CC1)c(=O)n2CC1CC1` [cipamfylline], the “efficacy in the treatment of atopic dermatitis patients versus hydrocortisone 17-butyrate (0.1%) cream” value ([1]; 0.15% cream) is listed as “significantly less effective than hydrocortisone 17-butyrate (0.1%) cream” and the “efficacy in the treatment of atopic dermatitis patients versus vehicle” value ([1]; 0.15% cream) is listed as “significantly more effective than vehicle”.

For `O=C(Nc1c(Cl)cncc1Cl)c1ccc(OC(F)F)c(OCC2CC2)c1` [roflumilast], the “FEV1 in COPD patients” value [3] is given as “appears to show small improvements in FEV1”.
